The target in the test is LSD-1 enzyme (Homo sapiens (Human), UniProt O60341).
Protocol: LSD1 Histone Demethylase Biochemical Assay
LANCE LSD1/KDM1A demethylase assay-10 μL of 1 nM LSD-1 enzyme (ENZO BML-SE544-0050) in the assay buffer (50 mM Tris, pH 7.5, 0.01% Tween-20, 25 mM NaCl, 5 mM DTT) were preincubated for 1 hour at 25° C. with 0.8 μL compound/DMSO dotted in black 384 well polystyrene plates. […] After stopping the reactions plates were incubated for 30 minutes and read on a PHERAstar FS plate reader (BMG Labtech).
What is called IC50 is the concentration needed to halve the response being measured. Low values mean higher potency, high ones lower potency. `Fc1ccc(CN2CC(CN[C@@H]3C[C@H]3c3ccccc3)C2)cc1` (relative stereo) [Example 2, N-{[1-(4-Fluorobenzyl)azetidin-3-yl]methyl}-trans-2-phenylcyclopropanamine] showed an IC50 below 100 nM. To `Fc1ccc(CN2CCC(N[C@@H]3C[C@H]3c3ccccc3)CC2)cc1` (relative stereo) [Example 5, 1-(4-Fluorobenzyl)-N-(trans-2-phenylcyclopropyl)piperidin-4-amine] belongs below 100 nM; to `N#Cc1ccc(CN2CC(CN[C@@H]3C[C@H]3c3ccccc3)C2)cc1` (relative stereo) [Example 6, 4-[(3-{[(trans-2-Phenylcyclopropyl)amino]methyl}azetidin-1-yl)methyl]benzonitrile], below 100 nM.

In turn, `N#Cc1cccc(CN2CC(CN[C@@H]3C[C@H]3c3ccccc3)C2)c1` (relative stereo) [Example 7, 3-[(3-{[(trans-2-Phenylcyclopropyl)amino]methyl}azetidin-1-yl)methyl]benzonitrile] had a concentration for half-maximal inhibition (IC50) below 100 nM.

`N#CCC1(CN[C@@H]2C[C@H]2c2ccccc2)CCN(C(=O)c2cccc(F)c2)CC1` (relative stereo) [Example 8, (1-(3-Fluorobenzoyl)-4-{[(trans-2-phenylcyclopropyl)amino]methyl}piperidin-4-yl)acetonitrile] registered a half-maximal inhibitory concentration (IC50) below 100 nM. In turn, `N#CCC1(CN[C@@H]2C[C@H]2c2ccccc2)CCN(Cc2cccc(F)c2)CC1` (relative stereo) [Example 9, (1-(3-Fluorobenzyl)-4-{[(trans-2-phenylcyclopropyl)amino]methyl}piperidin-4-yl)acetonitrile] yielded an IC50 below 100 nM.

`N#CC1CCN(C(=O)N2CC(CN[C@@H]3C[C@H]3c3ccccc3)C2)CC1` (relative stereo) [Example 12, 1-[(3-{[(trans-2-Phenylcyclopropyl)amino]methyl}azetidin-1-yl)carbonyl]piperidine-4-carbonitrile] gave an IC50 below 100 nM. To `O=C(N1CCC(C(F)(F)F)CC1)N1CC(CN[C@@H]2C[C@H]2c2ccccc2)C1` (relative stereo) [Example 13, Trans-2-phenyl-N-[(1-{[4-(trifluoromethyl)piperidin-1-yl]carbonyl}azetidin-3-yl)methyl]cyclopropanamine] belongs below 100 nM. Next, `N#CC1(c2ccccc2)CCN(C(=O)N2CC(CN[C@@H]3C[C@H]3c3ccccc3)C2)CC1` (relative stereo) [Example 16, 4-Phenyl-1-[(3-{[(trans-2-phenylcyclopropyl)amino]methyl}azetidin-1-yl)carbonyl]piperidine-4-carbonitrile]: below 100 nM; `O=C(N1CCC(O)(c2ccccc2)CC1)N1CC(CN[C@@H]2C[C@H]2c2ccccc2)C1` (relative stereo) [Example 17, 4-Phenyl-1-[(3-{[(trans-2-phenylcyclopropyl)amino]methyl}azetidin-1-yl)carbonyl]piperidin-4-ol]: below 100 nM; `O=C(N1CCC2(CC1)CNc1ccc(F)cc12)N1CC(CN[C@@H]2C[C@H]2c2ccccc2)C1` (relative stereo) [Example 18, N-({1-[(5-Fluoro-1,2-dihydro-spiro[indole-3,4′-piperidin]-1′-yl)carbonyl]azetidin-3-yl}methyl)-trans-2-phenylcyclopropanamine]: below 100 nM. As for `O=C(Nc1ccccc1F)N1CC(CN[C@@H]2C[C@H]2c2ccccc2)C1` (relative stereo) [Example 19, N-(2-Fluorophenyl)-3-{[(trans-2-phenylcyclopropyl)amino]methyl}azetidine-1-carboxamide], the half-inhibitory concentration (IC50) was below 100 nM. `O=C(Nc1cccc(F)c1)N1CC(CN[C@@H]2C[C@H]2c2ccccc2)C1` (relative stereo) [Example 20, N-(3-Fluorophenyl)-3-{[(trans-2-phenylcyclopropyl)amino]methyl}azetidine-1-carboxamide] had an IC50 below 100 nM.

Values taken from patent US9670210B2, “Cyclopropylamines as LSD1 inhibitors” (Incyte Corporation, priority 2014, dated 2017).
